From paper PMC5410595, “In Vitro and In Silico Antidiabetic and Antimicrobial Evaluation of Constituents from Kickxia ramosissima (Nanorrhinum ramosissimum)” (Frontiers in Pharmacology, 2017)
≈ marks a conversion by molar mass, not a printed value. Where “and” joins values, the source holds several entries; their conditions need not be identical. Equal entries are not always repeated. Entries after “also recorded” stand apart in the source; their conditions may differ.

Experiments:
[1] = test system: formation of AGEs (BSA-glucose); assay: BSA-glucose antiglycation assay; type: biochemical; conditions: for IC50: read-out: Protein glycation BSA-Glucose IC50
Method: (§1) The BSA-glucose and BSA-MGO antiglycation assays were performed as reported before ([Amin et al., 2016]). The test protocol is attached as Supplementary Material ([Amin et al., 2016]).
28 Antiglycation assay (BSA-Glucose assay)
29 In the BSA-glucose assay the prevention of AGEs formation is investigated by determining the
30 fluorescence of the complex formed after incubation of a sugar (glucose) with protein (BSA) in
31 the presence or absence of test compounds. The antiglycation assay was performed according to
32 the method developed by Matsuura et al. (2002) with minor modifications. […]
37 DMSO. The mixtures were incubated at 60°C for 48 h. After incubation, the reaction mixture
38 was allowed to cool down at room temperature. Then 100 µL reaction mixture was transferred
39 to a new plastic tube (1.5 mL) and the reaction was stopped by adding 10 μL of 100% (w/v)
40 trichloroacetic acid (TCA) and to precipitate proteins. The TCA-added mixture was kept at 4°C
41 for 10 min, followed by centrifugation (14000 rpm, 4 °C, 4 min). The supernatant containing
42 unreacted D-glucose, test sample and interfering substances was discarded, whereas the
44 8.1 mM Na2HPO4, 2.68 mM KCl, 1.47 mM KH2PO4, […]). The change in fluorescence
46 of AGEs was monitored by spectrofluorometry (Tecan™ Infinite M200, Giessen, The
47 Netherlands). In order to eliminate interference by autofluorescence of the test compounds, a
48 parallel incubation of test substance with BSA at 60°C without D-glucose was performed for all
50 final concentration) were used as reference compounds.
51 The AGEs inhibition was calculated as
55 where F is the fluorescence intensity.
56 calculated using Sigma plot® 13.0.

[2] = test system: formation of AGEs (BSA-MGO); assay: BSA-MGO antiglycation assay; type: biochemical
Method: as §1
60 Protein-glyoxal interaction (BSA-MGO assay)
61 The antiglycation assay using methylgloxyl (MGO) was performed according to the method
62 developed by Peng et al. (2007) with slight modifications. Briefly, methylglyoxal (135 μL, 5.75
63 mM) was incubated with BSA (135 μL, 10 mg/mL) dissolved in phosphate buffer (50 mM, pH
64 7.4, containing sodium azide (0.02%), added to prevent bacterial growth) and test compounds
65 (30 μL) at different final concentrations (1.5 – 0.023 mM) in 100% DMSO. The reaction
66 mixture was incubated at 37 °C for one week. Control solutions only contained methylglyoxal
67 (135 μL, 5.75 mM) BSA (135 μL, 1 0mg/mL) and DMSO (100%) only. The blank samples of
68 similar composition were also prepared simultaneously and kept at 4 °C for one week. The
70 440) due to formation of AGEs was monitored by spectrofluorometry (Tecan® Infinite M200,
71 Giessen, The Netherlands). Aminoguanidine (3-0.046 mM final concentration) was used as
72 reference compound. The AGEs inhibition was calculated as
74 % AGEs inhibition = [1–(S–Sb)/(C–Cb)] x 100
76 where S and C were fluorescence of test samples (in DMSO) and control (test mixtures
77 containing only DMSO) incubated at 37 °C, and where Sb and Cb were fluorescence for
78 samples incubated at 4 °C.
79 using Sigma plot® 13.0.

[3] = molecular target: T1, α-glucosidase from Saccharomyces cerevisiae (Saccharomyces cerevisiae, UniProt P53341); assay: α-glucosidase inhibition assay; type: biochemical; set-up: inhibition: dose or concentration left out as unconfirmed; conditions: read-out: α-glucosidase % inhibition
T1 construct: purchased Sigma-Aldrich
Method: The α-glucosidase assay was carried out according as reported before ([Amin et al., 2016]). The test protocol is attached as Supplementary Material ([Amin et al., 2016]).
81 Inhibition of α-glucosidase.
82 α-Glucosidase inhibitory activity was assayed according to method adopted by Choudhary et al.
83 (2010) with some modifications. Briefly, 50 µL of a solution of α-glucosidase from
84 Saccharomyces cerevisiae (0.2 U/mL in 0.1 M phosphate buffer at pH 6.8, Sigma-Aldrich, St.
85 Louis, MO, USA) was incubated with 20 μL of test compounds or extracts at different
86 concentrations (ranging from 6 mM – 0.372 mM in 25% DMSO for isolated constituents or
87 from 5 mg to 0.039 mg/mL for extracts) at 37 °C for 10 min. Then 50 μl of the substrate,
88 p-nitrophenyl-α-D-glucopyranoside (0.7 mM stock, final concentration 0.29 mM) was added to
89 the reaction mixture and incubated again for 30 min at 37 °C. […]
91 from 834 µg to 6.5 µg/mL for extracts. The reaction was stopped by adding Na2CO3 (100 μl,
92 200 mM stock) solution and the absorbance was measured at 400 nm. Final DMSO
93 concentration remained below 7.5% during the assay.
94 concentration) was used as reference compound.
96 The % inhibition was calculated using the following formula:
98 % Inhibition = 100 – [OD (test sample) / OD (control)] × 100
100 Alpha-glucosidase inhibition was categorized as mild (1-25%), moderate (26-50%), high

15-LOX from soybean = molecular target: T2, 15-LOX from soybean (Glycine max, UniProt P08170); assay: 15-lipoxygenase inhibition assay; type: biochemical; conditions: at the highest test concentration
T2 sequence (P08170 1-839): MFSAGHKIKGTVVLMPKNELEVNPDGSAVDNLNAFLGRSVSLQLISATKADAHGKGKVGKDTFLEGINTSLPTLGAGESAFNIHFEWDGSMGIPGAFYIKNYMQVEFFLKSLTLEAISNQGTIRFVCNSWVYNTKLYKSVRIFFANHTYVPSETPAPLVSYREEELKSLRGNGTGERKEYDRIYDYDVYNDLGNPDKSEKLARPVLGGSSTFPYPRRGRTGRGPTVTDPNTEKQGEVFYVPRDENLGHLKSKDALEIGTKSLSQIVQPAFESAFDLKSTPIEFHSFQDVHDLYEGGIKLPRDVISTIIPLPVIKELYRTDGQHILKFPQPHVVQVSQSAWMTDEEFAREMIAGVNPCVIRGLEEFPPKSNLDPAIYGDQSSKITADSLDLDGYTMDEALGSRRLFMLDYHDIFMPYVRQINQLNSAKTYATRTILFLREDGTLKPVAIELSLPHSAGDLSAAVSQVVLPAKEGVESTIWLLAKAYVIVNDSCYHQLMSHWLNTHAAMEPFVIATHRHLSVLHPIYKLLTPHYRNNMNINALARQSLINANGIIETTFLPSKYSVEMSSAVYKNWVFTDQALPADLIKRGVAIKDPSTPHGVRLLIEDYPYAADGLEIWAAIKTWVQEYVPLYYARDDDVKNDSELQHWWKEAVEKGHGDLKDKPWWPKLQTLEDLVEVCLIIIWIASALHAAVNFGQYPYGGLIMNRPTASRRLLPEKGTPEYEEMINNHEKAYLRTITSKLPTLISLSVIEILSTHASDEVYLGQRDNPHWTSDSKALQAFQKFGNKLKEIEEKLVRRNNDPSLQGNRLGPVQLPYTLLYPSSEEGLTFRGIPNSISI
Method: The soybean LOX assay is used as an indication of anti-inflammatory activity ([Muller, 1994]), and therefore during the present investigation, 15-LOX from soybean was used for peroxidation of linoleic acid, and inhibition was measured as described previously with slight modifications ([Malterud and Rydland, 2000]). Briefly, 12.5 μL (2–0.062 mM) of sample was dissolved in DMSO, and added to 487.5 μL of enzyme solution (200 U/mL). The mixture was incubated at room temperature for 5 min. Absorbance was recorded immediately after the addition of 500 μL of substrate (250 μM linoleic acid in 0.2 M borate buffer, pH 9) every minute up to 5 min at 234 nm.
% inhibition of enzyme activity was calculated as,
%inhibition of enzyme activity=([ΔA1/Δt]−[ΔA2/Δt])/(ΔA1/Δt)×100
where ΔA1/Δt and ΔA2/Δt are the increase rate in absorbance at 234 nm for sample without test substance and with test substance, respectively.

Escherichia coli = assay: Antimicrobial screening panel: Escherichia coli; type: cell-based
Method: (§2) Fractions and isolated compounds were evaluated for antimicrobial activity in an integrated screening panel, also including the human MRC-5 cell line to assess selectivity, as reported before ([Cos et al., 2006]; [Mesia et al., 2008]; [Baldé et al., 2010]; [Amin et al., 2016]).

[4] = test system: Trypanosoma brucei, Squib 427; assay: Antimicrobial screening panel: Trypanosoma brucei; type: cell-based
Method: as §2

[5] = test system: AAPH induced linoleic acid peroxidation; assay: Inhibition of linoleic acid lipid peroxidation, AAPH assay; type: biochemical; conditions: slope of inhibition time (Tinh) vs. concentration of antioxidant
Method: The inhibition of linoleic acid lipid peroxidation was studied according to [Liegeois et al. (2000)] and [Rajic et al. (2010)]. Briefly, 10 μL of a 16 mM linoleic acid dispersion and 10 μL of the test compound (8-1 μM final concentration) were added to the UV cuvette containing 0.93 mL of 0.05 M phosphate buffer, pH 7.4. The oxidation reaction was initiated under air by the addition of 50 μL (40 mM) of AAPH solution. The rate of oxidation at 37°C was monitored by recording the increase of absorption at 234 nm caused by conjugated diene hydroperoxides. The results were compared to the standard inhibitor (Trolox). The AOP is defined as the slope of the curve representing the inhibition time of oxidation (Tinh) vs. the concentration of antioxidant and is expressed in min/μM.

[6] = test system: Trypanosoma cruzi, Tulahuen LacZ, clone C4; assay: Antimicrobial screening panel: Trypanosoma cruzi; type: cell-based
Method: as §2

[7] = test system: Leishmania infantum, MHOM/MA/67/ITMAP263; assay: Antimicrobial screening panel: Leishmania infantum; type: cell-based
Method: as §2

[8] = test system: Microsporum canis, B68128 Janssen strain; assay: Antimicrobial screening panel: Microsporum canis; type: cell-based
Method: as §2

T1 sequence (P53341 whole entry): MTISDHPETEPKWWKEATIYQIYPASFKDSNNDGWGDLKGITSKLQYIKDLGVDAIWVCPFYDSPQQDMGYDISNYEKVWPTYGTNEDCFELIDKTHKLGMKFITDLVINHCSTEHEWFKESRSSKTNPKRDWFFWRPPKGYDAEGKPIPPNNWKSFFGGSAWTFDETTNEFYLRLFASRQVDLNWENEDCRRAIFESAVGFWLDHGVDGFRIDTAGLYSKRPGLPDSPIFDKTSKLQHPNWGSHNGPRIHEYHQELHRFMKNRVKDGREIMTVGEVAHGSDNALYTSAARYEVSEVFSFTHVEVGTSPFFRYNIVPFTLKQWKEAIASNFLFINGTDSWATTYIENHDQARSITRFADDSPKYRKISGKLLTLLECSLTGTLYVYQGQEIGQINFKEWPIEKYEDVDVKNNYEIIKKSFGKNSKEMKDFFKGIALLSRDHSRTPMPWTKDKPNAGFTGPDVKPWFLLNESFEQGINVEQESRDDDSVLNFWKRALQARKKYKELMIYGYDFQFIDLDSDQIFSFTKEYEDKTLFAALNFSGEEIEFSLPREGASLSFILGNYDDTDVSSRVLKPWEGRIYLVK

N=C(N)NN [Aminoguanidine, reference compound]
IC50, BSA-glucose assay ([1]; fractions and positive control): 199 µg/mL (≈ 2690 µM)
IC50 [1]: 1750 µM
IC50 ([2]; read-out: Protein glycation BSA-MGO IC50): 150 µM

CC1(O)C(Cl)C(O)C2(O)C=COC(OC3OC(CO)C(O)C(O)C3O)C12 (centres unmarked) [Compound 4, Linarioside]
Protein glycation BSA-Glucose % inhibition ([1]; isolated constituents, at the highest test concentration of 3 mM): did not present any activity; also recorded: no activity
Protein glycation BSA-MGO % inhibition ([2]; isolated constituents, highest test concentration): 9%
inhibition [3]: 29%
15-LOX assay % inhibition (15-LOX from soybean): 8%

O=C(N[C@H](CO)[C@H](O)c1ccc([N+](=O)[O-])cc1)C(Cl)Cl [chloramphenicol]
IC50 (Escherichia coli): 2.42 µM

Cc1ccc(C(=O)Nc2ccc(S(=O)(=O)O)c3cc(S(=O)(=O)O)cc(S(=O)(=O)O)c23)cc1NC(=O)c1cccc(NC(=O)Nc2cccc(C(=O)Nc3cc(C(=O)Nc4ccc(S(=O)(=O)O)c5cc(S(=O)(=O)O)cc(S(=O)(=O)O)c45)ccc3C)c2)c1 [suramine]
IC50 [4]: 0.03 µM

Cc1c(C)c2c(c(C)c1O)CCC(C)(C(=O)O)O2 (centres unmarked) [Trolox, reference compound]
AAPH assay AOP (antioxidant power) [5]: 14.12 min/μM and 14.12^c min/μM

O=C(Cn1ccnc1[N+](=O)[O-])NCc1ccccc1 [benznidazol, reference compound]
IC50 [6]: 2.13 µM

CCCCCCCCCCCCCCCCOP(=O)([O-])OCC[N+](C)(C)C [miltefosine]
IC50 [7]: 9.02 µM

CN(C/C=C/C#CC(C)(C)C)Cc1cccc2ccccc12 [terbinafin]
IC50 [8]: 1.38 µM

O=c1c(O)c(-c2ccc(O)c(O)c2)oc2cc(O)cc(O)c12 [Quercetin, reference compound]
IC50 [1]: 230 µM
